From patent publication US11166959B2, “Isofuranone compounds useful as HPK1 inhibitors” (BRISTOL-MYERS SQUIBB COMPANY, priority 2017, dated 2021)
Like-named read-outs stand apart in the source and are kept apart here.

Legend:
HPK1 = molecular target: T1, HPK1 (Homo sapiens, UniProt Q92918); assay: HPK1 Inhibition Assay (kinase reaction, Caliper capillary electrophoresis); assay type: biochemical; conditions: for IRAK4/HPK1 Ratio: ratio of the IRAK4 IC50 value to the HPK1 IC50 value
T1 construct: purchased SignalChem M23-11G
T1 sequence (Q92918 1-346 limits assumed): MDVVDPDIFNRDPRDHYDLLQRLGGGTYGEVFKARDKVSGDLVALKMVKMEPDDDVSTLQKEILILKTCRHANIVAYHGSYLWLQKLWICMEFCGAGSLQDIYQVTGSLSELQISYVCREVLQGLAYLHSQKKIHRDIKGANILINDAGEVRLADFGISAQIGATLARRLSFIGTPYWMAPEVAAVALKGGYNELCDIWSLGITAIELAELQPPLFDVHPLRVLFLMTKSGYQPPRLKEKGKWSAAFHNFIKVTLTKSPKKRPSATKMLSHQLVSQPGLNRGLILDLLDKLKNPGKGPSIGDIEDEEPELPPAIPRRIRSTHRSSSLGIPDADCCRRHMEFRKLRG
Method: (§1) The reactions were incubated out for three hours and quenched with 1 mM EDTA solution. The reaction incubation time and enzyme concentration were optimized to obtain a maximum peptide substrate conversion of 20-30%. The reaction mixtures were analyzed by capillary electrophoresis on a Caliper LabChip EZ Reader to resolve phosphorylated and unphosphorylated peptide species and determine peptide substrate conversion. […] The compounds were dissolved in DMSO and evaluated at 11 concentrations to determine the IC50 values.

IRAK4 = molecular target: T2, IRAK4 (Homo sapiens, UniProt Q9NWZ3); assay: IRAK4 Inhibition Assay (kinase reaction, Caliper capillary electrophoresis); assay type: biochemical; conditions: 500 μM ATP, 11 concentrations
T2 construct: 1 nM IRAK4 (160-460); purchased SignalChem M24016
T2 sequence (Q9NWZ3 160-460): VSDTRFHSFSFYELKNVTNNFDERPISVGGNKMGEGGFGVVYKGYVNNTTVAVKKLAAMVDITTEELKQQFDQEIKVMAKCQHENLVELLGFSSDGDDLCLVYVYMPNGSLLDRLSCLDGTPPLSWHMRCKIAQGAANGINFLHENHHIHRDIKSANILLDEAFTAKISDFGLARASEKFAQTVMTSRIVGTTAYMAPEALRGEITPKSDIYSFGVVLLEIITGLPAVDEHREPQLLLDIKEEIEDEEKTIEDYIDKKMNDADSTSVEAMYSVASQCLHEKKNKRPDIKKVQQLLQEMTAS
Method: as §1, with “determine” for “determine the”

[1] = 0.625 nM HPK1, 22 μM ATP, 11 concentrations, read-out: HPK1 IC50

| IC50 (HPK1; [1]) [nM] | IRAK4/HPK1 Ratio (HPK1) | IC50 (IRAK4) [nM] | Structure (SMILES) | IC50 (HPK1) [nM] |
| --- | --- | --- | --- | --- |
| < 50 | C (C=>50) | 250 to 1000 | CC(C)(CCCCO)c1noc(-c2cnc(Nc3ccc4c(c3)C(C)(C)OC4=O)nc2N[C@H](CO)c2ccccc2)n1 [Example 37, 5-[(4-{[(1S)-2-hydroxy-1-phenylethyl]amino}-5-[3-(6-hydroxy-2-methylhexan-2-yl)-1,2,4-oxadiazol-5-yl]pyrimidin-2-yl)amino]-3,3-dimethyl-1,3-dihydro-2-benzofuran-1-one] |  |
| < 50 | C (C=>50) | 50 to 250 | CC1(C)OC(=O)c2ccc(Nc3ncc(-c4nc(C5(CO)CC5)no4)c(N[C@H](CO)c4ccccc4)n3)cc21 [Example 38, 5-[(4-{[(1S)-2-hydroxy-1-phenylethyl]amino}-5-{3-[1-(hydroxymethyl)cyclopropyl]-1,2,4-oxadiazol-5-yl}pyrimidin-2-yl)amino]-3,3-dimethyl-1,3-dihydro-2-benzofuran-1-one] |  |
| < 50 | C (C=>50) | 250 to 1000 | CC1(C)OC(=O)c2ccc(Nc3ncc(-c4nc(C5CC(F)(F)C5)no4)c(N[C@H](CO)c4ccccc4)n3)cc21 [Example 40, 5-({5-[3-(3,3-difluorocyclobutyl)-1,2,4-oxadiazol-5-yl]-4-{[(1S)-2-hydroxy-1-phenylethyl]amino}pyrimidin-2-yl}amino)-3,3-dimethyl-1,3-dihydro-2-benzofuran-1-one] |  |
| < 50 | C (C=>50) | 50 to 250 | CC(C)(CO)c1noc(-c2cnc(Nc3ccc4c(c3)C(C)(C)OC4=O)nc2N[C@H](CO)c2ccccc2)n1 [Example 41, (S)-5-((4-((2-hydroxy-1-phenylethyl)amino)-5-(3-(1-hydroxy-2-methylpropan-2-yl)-1,2,4-oxadiazol-5-yl)pyrimidin-2-yl)amino)-3,3-dimethylisobenzofuran-1(3H)-one] |  |
| < 50 | C (C=>50) | 250 to 1000 | CC1(C)OC(=O)c2ccc(Nc3ncc(-c4nc(-c5ccccn5)no4)c(N[C@H](CO)c4ccccc4)n3)cc21 [Example 42, 5-[(4-{[(1S)-2-hydroxy-1-phenylethyl]amino}-5-[3-(pyridin-2-yl)-1,2,4-oxadiazol-5-yl]pyrimidin-2-yl)amino]-3,3-dimethyl-1,3-dihydro-2-benzofuran-1-one] |  |
| < 50 | C (C=>50) | 250 to 1000 | CC1(C)OC(=O)c2ccc(Nc3ncc(-c4nc(-c5cccnc5)no4)c(N[C@H](CO)c4ccccc4)n3)cc21 [Example 43, 5-[(4-{[(1S)-2-hydroxy-1-phenylethyl]amino}-5-[3-(pyridin-3-yl)-1,2,4-oxadiazol-5-yl]pyrimidin-2-yl)amino]-3,3-dimethyl-1,3-dihydro-2-benzofuran-1-one] |  |
| 50 to 250 | B (B=10 to 50) | 250 to 1000 | CC1(C)OC(=O)c2ccc(Nc3ncc(-c4nc(-c5cccc(F)c5)no4)c(N[C@H](CO)c4ccccc4)n3)cc21 [Example 45, 5-({5-[3-(3-fluorophenyl)-1,2,4-oxadiazol-5-yl]-4-{[(1S)-2-hydroxy-1-phenylethyl]amino}pyrimidin-2-yl}amino)-3,3-dimethyl-1,3-dihydro-2-benzofuran-1-one] |  |
| < 50 | C (C=>50) | 250 to 1000 | CC1(C)OC(=O)c2ccc(Nc3ncc(-c4nc(C56CC(N)(C5)C6)no4)c(N[C@H](CO)c4ccccc4)n3)cc21 [Example 47, 5-{[5-(3-{3-aminobicyclo[1.1.1]pentan-1-yl}-1,2,4-oxadiazol-5-yl)-4-{[(1S)-2-hydroxy-1-phenylethyl]amino}pyrimidin-2-yl]amino}-3,3-dimethyl-1,3-dihydro-2-benzofuran-1-one] |  |

The next lines start with the compound.

| Structure (SMILES) | IC50 (HPK1; [1]) [nM] | IRAK4/HPK1 Ratio (HPK1) | IC50 (IRAK4) [nM] | IC50 (HPK1) [nM] |
| --- | --- | --- | --- | --- |
| CC1(CNC(=O)c2cnc(Nc3ccc4c(c3)C(C)(C)OC4=O)nc2N[C@H](CO)c2ccccc2)COC1 [Example 23, 2-[(3,3-dimethyl-1-oxo-1,3-dihydro-2-benzofuran-5-yl)amino]-4-{[(1S)-2-hydroxy-1-phenylethyl]amino}-N-[(3-methyloxetan-3-yl)methyl]pyrimidine-5-carboxamide] | < 50 | B (B=10 to 50) | 250 to 1000 |  |
| CC1(C)OC(=O)c2ccc(Nc3ncc(C(=O)NC[C@@]4(O)CN5CCC4CC5)c(N[C@H](CO)c4ccccc4)n3)cc21 [Example 24, 2-[(3,3-dimethyl-1-oxo-1,3-dihydro-2-benzofuran-5-yl)amino]-N-{[(3R)-3-hydroxy-1-azabicyclo[2.2.2]octan-3-yl]methyl}-4-{[(1S)-2-hydroxy-1-phenylethyl]amino}pyrimidine-5-carboxamide] |  | B (B=10 to 50) | 250 to 1000 | < 50 |
| CC1(C)OC(=O)c2ccc(Nc3ncc(C(=O)NCC4CN5CCC4CC5)c(N[C@H](CO)c4ccccc4)n3)cc21 (stereo partly drawn) [Example 25, N-({1-azabicyclo[2.2.2]octan-3-yl}methyl)-2-[(3,3-dimethyl-1-oxo-1,3-dihydro-2-benzofuran-5-yl)amino]-4-{[(1S)-2-hydroxy-1-phenylethyl]amino}pyrimidine-5-carboxamide] |  | B (B=10 to 50) | 250 to 1000 | < 50 |
| CC1(C)OC(=O)c2ccc(Nc3ncc(C(=O)NCC4(CN5CCOCC5)CC4)c(N[C@H](CO)c4ccccc4)n3)cc21 [Example 26, 2-[(3,3-dimethyl-1-oxo-1,3-dihydro-2-benzofuran-5-yl)amino]-4-{[(1S)-2-hydroxy-1-phenylethyl]amino}-N-({1-[(morpholin-4-yl)methyl]cyclopropyl}methyl)pyrimidine-5-carboxamide] | < 50 | C (C=>50) | 250 to 1000 |  |
| CC1(C)OC(=O)c2ccc(Nc3ncc(C4=NCC5(CCOCC5)O4)c(N[C@H](CO)c4ccccc4)n3)cc21 [Example 27, 5-[(5-{1,8-dioxa-3-azaspiro[4.5]dec-2-en-2-yl}-4-{[(1S)-2-hydroxy-1-phenylethyl]amino}pyrimidin-2-yl)amino]-3,3-dimethyl-1,3-dihydro-2-benzofuran-1-one] | < 50 | B (B=10 to 50) | 50 to 250 |  |
| CC1(C)OC(=O)c2ccc(Nc3ncc(-c4nc(N5CCOCC5)no4)c(N[C@H](CO)c4ccccc4)n3)cc21 [Example 31, 5-[(4-{[(1S)-2-hydroxy-1-phenylethyl]amino}-5-[3-(morpholin-4-yl)-1,2,4-oxadiazol-5-yl]pyrimidin-2-yl)amino]-3,3-dimethyl-1,3-dihydro-2-benzofuran-1-one] | < 50 | C (C=>50) | 50 to 250 |  |
| CC1(C)OC(=O)c2ccc(Nc3ncc(-c4nc(CN5CCOCC5)no4)c(N[C@H](CO)c4ccccc4)n3)cc21 [Example 32, 5-[(4-{[(1S)-2-hydroxy-1-phenylethyl]amino}-5-{3-[(morpholin-4-yl)methyl]-1,2,4-oxadiazol-5-yl}pyrimidin-2-yl)amino]-3,3-dimethyl-1,3-dihydro-2-benzofuran-1-one] | < 50 | C (C=>50) | 250 to 1000 |  |
| CC1(C)OC(=O)c2ccc(Nc3ncc(-c4nc(C5CCOCC5)no4)c(N[C@H](CO)c4ccccc4)n3)cc21 [Example 33, 5-[(4-{[(1S)-2-hydroxy-1-phenylethyl]amino}-5-[3-(oxan-4-yl)-1,2,4-oxadiazol-5-yl]pyrimidin-2-yl)amino]-3,3-dimethyl-1,3-dihydro-2-benzofuran-1-one] | < 50 | C (C=>50) | 50 to 250 |  |
| CCCc1noc(-c2cnc(Nc3ccc4c(c3)C(C)(C)OC4=O)nc2N[C@H](CO)c2ccccc2)n1 [Example 35, 5-[(4-{[(1S)-2-hydroxy-1-phenylethyl]amino}-5-(3-propyl-1,2,4-oxadiazol-5-yl)pyrimidin-2-yl)amino]-3,3-dimethyl-1,_3-dihydro-2-benzofuran-1-one] | < 50 | C (C=>50) | 250 to 1000 |  |
| CCCCc1noc(-c2cnc(Nc3ccc4c(c3)C(C)(C)OC4=O)nc2N[C@H](CO)c2ccccc2)n1 [Example 36, 5-{[5-(3-butyl-1,2,4-oxadiazol-5-yl)-4-{[(1S)-2-hydroxy-1-phenylethyl]amino}pyrimidin-2-yl]amino}-3,3-dimethyl-1,3-dihydro-2-benzofuran-1-one] | < 50 | C (C=>50) | 250 to 1000 |  |
